Consider seven compounds from PubChem BioAssay (NCI).

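Growth conditions: 96-well plates. Treatment: test compound, 48 hours, 5 concentrations. Analysis: linear interpolation between bracketing concentrations; unreached endpoints set to highest concentration. TGI denotes the concentration required for complete inhibition of growth.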

Test systems include MOLT-4 leukemia; OVCAR-4 ovarian; CCRF-CEM leukemia; SNB-75 CNS; HS 578T breast; MDA-N; OVCAR-3 ovarian; SW-620 colon; NCI-H522 lung; SN12C renal; K-562 leukemia; LOX IMVI melanoma; SR leukemia; IGROV1 ovarian; PC-3 prostate; U251 CNS; NCI-H460 lung; BT-549 breast; NCI/ADR-RES ovarian.
Holding throughout (experiment): NCI tumour cell line growth inhibition, 48 h

Regarding `C=C1CC(CN2CCC(=O)NC2=O)(c2ccccc2)OC1=O` (stereo not drawn), the TGI with MOLT-4 leukemia turned out to be 7.9 µM; in the experiment on OVCAR-4 ovarian it was 3.55 µM; with CCRF-CEM leukemia, 4.92 µM; in the experiment on SNB-75 CNS, 32.3 µM; with HS 578T breast, 34.6 µM; in the experiment with MDA-N, 26.7 µM. In addition, the TGI in the experiment with OVCAR-3 ovarian turned out to be 31.7 µM; with SW-620 colon, 4.78 µM; in the experiment on NCI-H522 lung it was 2.17 µM; in the experiment on SN12C renal it was 33.4 µM; in the experiment on K-562 leukemia it was 10.9 µM; in the experiment with LOX IMVI melanoma, 16.7 µM. The TGI with SR leukemia was determined as 5.26 µM; in the experiment with IGROV1 ovarian, 20.7 µM; in the experiment with PC-3 prostate, 30.4 µM; in the experiment on U251 CNS, 32.1 µM; with NCI-H460 lung, 38.2 µM; in the experiment on BT-549 breast, 19.9 µM. Also, the TGI in the experiment on NCI/ADR-RES ovarian came to 32.8 µM.
As to `c1ccc(C2=Nc3cccc4cccc(c34)N2)cc1`, the TGI was above 54.8 µM in the experiment with MOLT-4 leukemia; 42.6 µM with OVCAR-4 ovarian; 28.7 µM in the experiment on CCRF-CEM leukemia; above 100 µM with SNB-75 CNS; above 100 µM in the experiment on HS 578T breast; above 100 µM in the experiment with MDA-N. Moreover, the TGI was 45.2 µM in the experiment with OVCAR-3 ovarian; 39.3 µM in the experiment with SW-620 colon; 24.8 µM in the experiment with NCI-H522 lung; above 100 µM in the experiment on SN12C renal; above 72.9 µM in the experiment with K-562 leukemia; 60 µM with LOX IMVI melanoma. Besides, the TGI with SR leukemia was 52.9 µM; in the experiment on IGROV1 ovarian, above 94.5 µM; in the experiment with PC-3 prostate it was 68 µM; in the experiment on U251 CNS, above 100 µM; with NCI-H460 lung, above 100 µM; in the experiment with BT-549 breast it was above 85.7 µM. In the experiment with NCI/ADR-RES ovarian, the TGI is above 72.1 µM.
As for `NC(N)=NS(=O)(=O)c1ccc(NC(=O)c2ccc3[nH]c4ccccc4c(=O)c3c2)cc1`, the TGI in the experiment with MOLT-4 leukemia, in the experiment with OVCAR-4 ovarian, in the experiment on CCRF-CEM leukemia, in the experiment with SNB-75 CNS, in the experiment on HS 578T breast and with MDA-N was above 100 µM in each case. The TGI with OVCAR-3 ovarian, with SW-620 colon, in the experiment on NCI-H522 lung, in the experiment with SN12C renal, in the experiment with K-562 leukemia and in the experiment on LOX IMVI melanoma was above 100 µM throughout. For the same compound, the TGI in the experiment on SR leukemia, in the experiment with IGROV1 ovarian, in the experiment with PC-3 prostate, with U251 CNS, in the experiment on NCI-H460 lung and with BT-549 breast was above 100 µM in each case. For the same compound, the TGI with NCI/ADR-RES ovarian was above 100 µM.
As to `CC(NC(NC(C)C12CC3CC(CC(C3)C1)C2)=C(C(Cl)=C(Cl)Cl)[N+](=O)[O-])C12CC3CC(CC(C3)C1)C2` (stereo not drawn), the TGI in the experiment on MOLT-4 leukemia was above 100 µM; in the experiment on OVCAR-4 ovarian it was above 100 µM; with CCRF-CEM leukemia, 4.64 µM; in the experiment on SNB-75 CNS, above 100 µM; in the experiment on HS 578T breast, 53.9 µM; with MDA-N, above 100 µM. Besides, the TGI in the experiment on OVCAR-3 ovarian is 64.8 µM; in the experiment on SW-620 colon it was 62.1 µM; in the experiment with NCI-H522 lung, 24.3 µM; in the experiment on SN12C renal it was 23.2 µM; with K-562 leukemia it was above 40 µM; in the experiment on LOX IMVI melanoma, 21.5 µM. Besides, the TGI in the experiment on SR leukemia is above 100 µM; in the experiment on IGROV1 ovarian, 30.1 µM; in the experiment with PC-3 prostate, above 65.2 µM; with U251 CNS, 12.6 µM; in the experiment with NCI-H460 lung it was 21.8 µM; with BT-549 breast, above 91.6 µM. This compound also yielded a TGI with NCI/ADR-RES ovarian above 100 µM.
As for `CC[C@@H](/C=C\CCC1(C[C@@H](N)CCC=C(C)C)OCCO1)O[Si](C(C)C)(C(C)C)C(C)C`, the TGI in the experiment with MOLT-4 leukemia was 37.1 µM; in the experiment on OVCAR-4 ovarian, 36.8 µM; in the experiment with CCRF-CEM leukemia, 58.7 µM; in the experiment with SNB-75 CNS, 34.6 µM; in the experiment on HS 578T breast, 52.4 µM; in the experiment with MDA-N it was 30.7 µM. Further, the TGI in the experiment on OVCAR-3 ovarian was 38.8 µM; with SW-620 colon, 51.6 µM; in the experiment with NCI-H522 lung it was 39.7 µM; in the experiment with SN12C renal, 31.6 µM; with K-562 leukemia it was 31.1 µM; in the experiment on LOX IMVI melanoma it was 18.3 µM. The TGI turned out to be 14.5 µM in the experiment on SR leukemia; 30.6 µM in the experiment with IGROV1 ovarian; 29.6 µM in the experiment with PC-3 prostate; 35.1 µM in the experiment with U251 CNS; 34.9 µM in the experiment with NCI-H460 lung; 35 µM in the experiment with BT-549 breast. In the experiment with NCI/ADR-RES ovarian, this compound yielded a TGI of 33.9 µM.
As to `O=C(NNC(=S)NCc1ccccc1)C12CC3CC(CC(C3)C1)C2`, the TGI in the experiment with MOLT-4 leukemia, in the experiment on OVCAR-4 ovarian, in the experiment on CCRF-CEM leukemia, in the experiment on SNB-75 CNS, in the experiment with HS 578T breast and in the experiment on MDA-N was above 100 µM throughout. In addition, the TGI with OVCAR-3 ovarian, in the experiment on SW-620 colon, in the experiment with NCI-H522 lung, in the experiment with SN12C renal, in the experiment on K-562 leukemia and in the experiment with LOX IMVI melanoma was above 100 µM throughout. Moreover, the TGI in the experiment on SR leukemia, with IGROV1 ovarian, with PC-3 prostate, with U251 CNS, in the experiment on NCI-H460 lung and in the experiment on BT-549 breast was above 100 µM throughout. In the experiment with NCI/ADR-RES ovarian, this compound returned a TGI above 100 µM.
As for `Cc1ccc(C)n1-n1c(-c2ccccc2)n[nH]c1=O`, the TGI was above 100 µM in the experiment with MOLT-4 leukemia; above 100 µM in the experiment with OVCAR-4 ovarian; above 100 µM in the experiment on CCRF-CEM leukemia; above 100 µM in the experiment with SNB-75 CNS; above 100 µM with HS 578T breast; 70.8 µM with MDA-N. Moreover, the TGI in the experiment on OVCAR-3 ovarian, in the experiment with SW-620 colon, in the experiment on NCI-H522 lung, in the experiment with SN12C renal, in the experiment with K-562 leukemia and in the experiment on LOX IMVI melanoma was above 100 µM throughout. Also, the TGI with SR leukemia, in the experiment with IGROV1 ovarian, with PC-3 prostate, with U251 CNS, with NCI-H460 lung and in the experiment on BT-549 breast was above 100 µM throughout. Further, the TGI in the experiment on NCI/ADR-RES ovarian was above 100 µM.
